What was measured:
Polyprotein P1234 [1] = biological target: T1, Polyprotein P1234 (Chikungunya virus (strain S27-African prototype) (CHIKV), UniProt Q8JUX6); test: Inhibition of CHIKV nsP2 protease activity assessed as decrease in the fluorescence signal using peptide substrate measured for 20 mins by FRET analysis
Sindbis virus [2] = test: Antiviral activity against SINV infected african green monkey Vero cells assessed as reduction in viral titer measured after 24 hrs by plaque assay; type: functional, organism-based
Sindbis virus [3] = test: Antiviral activity against SINV infected african green monkey Vero cells assessed as reduction of plaque formation at 100 uM measured after 48 hrs relative to control; type: functional
Polyprotein P1234 [4] = biological target: T1, Polyprotein P1234; test: Binding affinity to CHIKV nsP2 assessed as equilibrium dissociation constant by isothermal titration calorimetry
Polyprotein P1234 [5] = biological target: T1, Polyprotein P1234; test: Binding affinity to CHIKV nsP2 assessed as inhibition constant by measuring fluorescence by multimode microplate reader
Chikungunya virus [6] = test: Antiviral activity against CHIKV infected african green monkey Vero cells assessed as inhibition of virus induced cytopathic effect measured after 48 hrs; type: functional, organism-based
[7] = Cytotoxicity against african green monkey Vero cells assessed as cell viability measured after 48 hrs by MTT assay; type: toxicity, cell-based; details: chlorocebus sabaeus
[8] = Selectivity index, ratio of CC50 for African green monkey Vero cells to EC50 for CHIKV; type: toxicity; details: read-out: Selectivity Index
Chikungunya virus [9] = test: Antiviral activity against CHIKV infected african green monkey Vero cells assessed as inhibition of virus induced cytopathic effect by measuring virus positive cells at 50 uM measured after 48 hrs by flow cytometry relative to control; type: functional; design: scale not given: the % may be the effect or the level left
[10] = Antiviral activity against […] infected african green monkey Vero cells assessed as reduction in viral RNA copies measured per uL at 50 uM measured after 24 hrs (reference value: 1.4 x […] vRNA copy numbers/uL); type: functional

T1 sequence (Q8JUX6 536-1333 limits assumed): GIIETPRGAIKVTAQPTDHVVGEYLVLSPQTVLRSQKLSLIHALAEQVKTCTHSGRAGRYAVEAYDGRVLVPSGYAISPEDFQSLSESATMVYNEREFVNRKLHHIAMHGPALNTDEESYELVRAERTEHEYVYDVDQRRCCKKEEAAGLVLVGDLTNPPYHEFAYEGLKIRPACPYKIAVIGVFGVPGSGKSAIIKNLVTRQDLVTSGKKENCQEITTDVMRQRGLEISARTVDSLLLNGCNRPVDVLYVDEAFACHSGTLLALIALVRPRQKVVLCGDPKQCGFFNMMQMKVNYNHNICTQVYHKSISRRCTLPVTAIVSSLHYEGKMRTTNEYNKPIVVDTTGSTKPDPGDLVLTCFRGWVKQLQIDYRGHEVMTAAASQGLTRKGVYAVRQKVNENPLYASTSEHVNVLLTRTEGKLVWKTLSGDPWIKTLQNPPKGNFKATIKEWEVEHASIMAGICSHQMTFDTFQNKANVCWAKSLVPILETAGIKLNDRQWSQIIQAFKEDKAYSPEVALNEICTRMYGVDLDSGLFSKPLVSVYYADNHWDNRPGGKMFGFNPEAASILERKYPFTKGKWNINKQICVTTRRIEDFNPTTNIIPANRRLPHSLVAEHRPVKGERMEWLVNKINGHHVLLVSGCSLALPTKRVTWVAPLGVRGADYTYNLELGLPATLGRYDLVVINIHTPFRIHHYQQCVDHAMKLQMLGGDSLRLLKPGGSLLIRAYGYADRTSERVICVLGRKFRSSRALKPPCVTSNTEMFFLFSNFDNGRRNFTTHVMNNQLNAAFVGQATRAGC

Row | SMILES | IC50 (Polyprotein P1234 [1]) | EC50 (Sindbis virus [2]) | Imax (Sindbis virus [3]) | Kd (Polyprotein P1234 [4]) | Ki (Polyprotein P1234 [5]) | EC50 (Chikungunya virus [6]) | CC50 at 48 h [7] | selectivity ratio [8] | Activity (Chikungunya virus [9]) | Activity [10]
1 | O=C(/C=C/c1ccc(Br)cc1)Nc1ccccc1 | 15.2 µM | 3.2 µM | >79.9% | 218 µM | 182 µM | – | – | – | – | –
2 | O=C(/C=C/c1ccc(Cl)cc1Cl)Nc1ccccc1 | 20 µM | < 3.12 µM | 88.77% | 159 µM | 92.3 µM | 47.9 µM | > 200 µM | > 4.17 | – | –
3 | O=C(/C=C/c1ccc(C(F)(F)F)cc1)Nc1ccccc1 | 12.5 µM | 0.95 µM | 95.76% | 127 µM | 48.6 µM | 5.2 µM | 165 µM | 31.8 | 35.8% | 720000
4 | COc1ccccc1/C=C/C(=O)Nc1ccccc1 | 0.95 µM | 73.1 µM | 58% | 198 µM | 2.3 µM | 25.9 µM | > 200 µM | > 7.72 | – | –
